Data set [1] concerns Mycobacterium tuberculosis. Nature of the data set: Antimycobacterial activity against Mycobacterium tuberculosis H37Rv ATCC 27294 in GAS medium after 1 week by microplate alamar blue assay. Format: functional. The settings on record: H37Rv ATCC 27294, 168 h.
Data set [2] deals with Mycobacterium tuberculosis. Nature of the data set: Antimycobacterial activity against Mycobacterium tuberculosis H37Rv ATCC 27294 in GAST medium after 1 week by microplate alamar blue assay. Type of data set: functional. The settings on record: H37Rv ATCC 27294, 168 h.
The next data set deals with Vero. Description: Cytotoxicity against african green monkey Vero cells by colorimetric assay. Type of data set: cell-based. The settings on record: Chlorocebus sabaeus.
The test system of data set [3] is Mycobacterium tuberculosis. Description: Antimycobacterial activity against Mycobacterium tuberculosis Erdman infected in BALB/c mouse assessed as reduction of bacterial load at 10 mg/kg, po qd for 5 days per week administered 60 days after infection measured after 85 days post infection relative to untreated control. Type of data set: functional.
Data set [4] has as its system Mycolicibacterium fortuitum. Description: Antimycobacterial activity against Mycobacterium fortuitum B. Type of data set: functional, organism-based.
A further data set concerns Bacillus subtilis. Description: Antibacterial activity against Bacillus subtilis ATCC 6633. Format: functional, organism-based.
The subject of data set [5] is Mycolicibacterium smegmatis. Description: Antimycobacterial activity against Mycobacterium smegmatis SG 987. Type of data set: functional, organism-based.
Data set [6] deals with Mycolicibacterium vaccae. Nature of the data set: Antimycobacterial activity against Mycobacterium vaccae 10670 by agar diffusion assay. Type of data set: functional, organism-based.
The test system of data set [7] is Mycolicibacterium aurum. Description: Antimycobacterial activity against Mycobacterium aurum DSM 43536. Format: functional, organism-based.
Data set [8] deals with Mycobacterium avium. Nature of the data set: Antimycobacterial activity against Mycobacterium avium MAC 108. Type of data set: functional, organism-based.
Data set [9] deals with Mycobacterium tuberculosis. Nature of the data set: Antimycobacterial activity against Mycobacterium tuberculosis assessed as growth inhibition at 12.5 ug/mL. Type of data set: functional.
The subject of data set [10] is Mycobacterium tuberculosis. Description: Antimycobacterial activity against Mycobacterium tuberculosis Erdman infected in BALB/c mouse assessed as reduction of bacterial load at 200 mg/kg, po qd for 5 days per week administered 60 days after infection measured after 85 days post infection. Type of data set: functional, organism-based. Details: dose 200 mg/kg.
For the next data set, the system named is Micrococcus luteus. Nature of the data set: Antibacterial activity against Micrococcus luteus ATCC 10240. Type of data set: functional, organism-based.
The next data set relates to Staphylococcus aureus. Description: Antibacterial activity against Staphylococcus aureus SG 511. Type of data set: functional, organism-based.
The subject of data set [11] is Sporobolomyces salmonicolor. Description: Antimicrobial activity against Sporobolomyces salmonicolor SBUG 549. Type of data set: functional, organism-based.
The subject of a further data set is Candida albicans. Description: Antifungal activity against Candida albicans. Format: functional, organism-based.
The subject of a further data set is Escherichia coli. Description: Antibacterial activity against Escherichia coli SG 458. Type of data set: functional, organism-based.
The test system of data set [12] is Mycobacterium avium. Description: Antimycobacterial activity against Mycobacterium avium MAC 109. Format: functional, organism-based.
The subject of data set [13] is Mycolicibacterium fortuitum. Nature of the data set: Antimycobacterial activity against Mycobacterium fortuitum B by agar diffusion assay. Format: functional, organism-based.
Data set [14] concerns Mycobacterium avium. Description: Antimycobacterial activity against Mycobacterium avium MAC 100. Type of data set: functional, organism-based.
Data set [15] deals with Mycolicibacterium smegmatis. Description: Antimycobacterial activity against Mycobacterium smegmatis. Format: functional.
In data set [16] the test system is Mycolicibacterium aurum. Description: Antimycobacterial activity against Mycobacterium aurum SB 66. Type of data set: functional, organism-based.
Data set [17] concerns Mycobacterium avium. Nature of the data set: Antimycobacterial activity against Mycobacterium avium MAC 101. Format: functional, organism-based.
Data set [18] concerns Mycobacterium avium. Description: Antimycobacterial activity against Mycobacterium avium MAC 116. Format: functional, organism-based.
The test system of the next data set is Proteus vulgaris. Nature of the data set: Antibacterial activity against Proteus vulgaris OX 19. Format: functional, organism-based.
Another data set concerns Colletotrichum. Description: Antifungal activity against Glomerella. Format: functional, organism-based.
Data set [19] concerns Mycolicibacterium vaccae. Description: Antimycobacterial activity against Mycobacterium vaccae 10670. Format: functional, organism-based.
Data set [20] deals with Mycobacterium tuberculosis. Nature of the data set: Antimycobacterial activity against Mycobacterium tuberculosis H37Rv. Type of data set: functional.
In a further data set the test system is Liver microsomes. Description: Metabolic stability in Sprague-Dawley rat microsomes assessed as compound remaining after 15 mins by HPLC analysis. Type of data set: ADME, Microsome. The conditions noted are these: 0.25 h.
Data set [21] can be described thus: Chemical stability in simulated gastric fluid assessed as compound remaining after 2 hrs by HPLC analysis. Format: physicochemical. The conditions noted are these: simulated gi fluid.
The test system of data set [22] is Mycobacterium tuberculosis. Nature of the data set: Antimycobacterial activity against Mycobacterium tuberculosis Erdman infected in BALB/c mouse assessed as reduction of bacterial load at 50 mg/kg, po qd for 5 days per week administered 60 days after infection measured after 85 days post infection. Format: functional, organism-based. On the set-up: dose 50 mg/kg.

For data set [23], the system named is Mus musculus. Nature of the data set: Toxicity in mouse assessed as change in body weight at 100 mg/kg, po qd for 5 days followed by 2 days rest and 200 mg/kg, po qd for 5 days. Type of data set: organism-based. The settings on record: in vivo.
The test system of data set [24] is Mus musculus. Nature of the data set: Toxicity in mouse assessed as behavioral change at 100 mg/kg, po qd for 5 days followed by 2 days rest and 200 mg/kg, po qd for 5 days. Type of data set: organism-based. The conditions noted are these: in vivo.
Data set [25] concerns Mycobacterium tuberculosis. Description: Antimycobacterial activity against Mycobacterium tuberculosis H37Rv ATCC 27294 incubated 10 days under anaerobic condition measured after 24 hrs recovery in air by luciferase based low oxygen recovery assay. Format: functional.
Data set [26] relates to Mus musculus. Description: Toxicity in mouse assessed as change in gross appearance at 100 mg/kg, po qd for 5 days followed by 2 days rest and 200 mg/kg, po qd for 5 days. Type of data set: organism-based. The conditions noted are these: in vivo.
Data set [27] relates to Mycobacterium tuberculosis. Nature of the data set: Antimycobacterial activity against Mycobacterium tuberculosis. Format: functional.

Structures are written as SMILES. ≈ marks a conversion by molar mass, not a printed value. Calls of active or inactive are those of the source. Unless noted, the rule behind the calls is not given here.

Consider five compounds from ChEMBL document CHEMBL1157845, “Structure-activity relationship of new anti-tuberculosis agents derived from oxazoline and oxazole benzyl esters” (Eur J Med Chem, 2010).

For the compound `CO[C@H]1/C=C/O[C@@]2(C)Oc3c(C)c(O)c4c(O)c(c(/C=N/N5CCN(C)CC5)c(O)c4c3C2=O)NC(=O)/C(C)=C\C=C\[C@H](C)[C@H](O)[C@@H](C)[C@@H](O)[C@@H](C)[C@H](OC(C)=O)[C@@H]1C` [RIFAMPIN], the results for the MIC in data set [1] and in [2] were 0.06 µM (≈ 0.0494 µg/mL) and 0.01 µM (≈ 0.00823 µg/mL), respectively. Also, the IC50 with Vero came to 125 µM. The “fold change (FC)” value in data set [3] was more than 2.

Regarding `CCCCCCCCCCCCCCCC(=O)N(O)CCCC[C@H](NC(=O)[C@@H]1COC(c2ccccc2O)=N1)C(=O)O[C@@H](C)CC(=O)N[C@H]1CCCCN(O)C1=O` [MYCOBACTIN S], the outcome (in [4]; in the data set with Bacillus subtilis; in data set [5]; in the data set on Mycolicibacterium aurum [7]; in the data set with Mycobacterium avium [8]; in data set [10]) was inactive. In addition, the result (with Micrococcus luteus; with Staphylococcus aureus; in [11]; in the data set with Candida albicans; in the data set with Escherichia coli; in the data set with Mycobacterium avium [12]) was inactive. Also, the result with Mycobacterium avium [14], with Mycolicibacterium aurum [16], with Mycobacterium avium [17], in the data set on Mycobacterium avium [18], in the data set with Proteus vulgaris and in the data set on Colletotrichum was inactive. In addition, the result in the data set on Mycolicibacterium vaccae [19] was inactive. Besides, the result (in the data set on Mycolicibacterium vaccae [6]; in [13]) was Active. Besides, the inhibition at 12.5 µg/mL in [9] is 99%. In data set [15], this compound yielded an MIC of 3.1 µM (≈ 2.49 µg/mL).

`CCCCCCCCCCCCCCCC(=O)N(O)CCCC[C@H](NC(=O)[C@@H]1COC(c2ccccc2O)=N1)C(=O)OC[C@H](NC(=O)OC(C)(C)C)C(=O)N[C@H]1CCCCN(O)C1=O`: the MIC in [20] was less than 0.2 µM; in data set [15], 0.2 µM (≈ 0.181 µg/mL). The outcome in data set [10] was inactive.

On to `O=C(OCc1ccccc1)c1coc(-c2ccc(F)c([N+](=O)[O-])c2)n1`, for which the outcome (in [4]; in the data set with Bacillus subtilis; in [5]; in the data set with Mycolicibacterium aurum [7]; in the data set on Mycobacterium avium [8]; in [22]) was inactive. Also, the outcome (in data set [10]; in the data set with Micrococcus luteus; in the data set on Staphylococcus aureus; in data set [11]; in the data set on Candida albicans; with Escherichia coli) was inactive. Besides, the outcome in the data set with Mycobacterium avium [12], in the data set on Mycobacterium avium [14], with Mycolicibacterium aurum [16], in the data set on Mycobacterium avium [17], in the data set with Mycobacterium avium [18] and with Proteus vulgaris was inactive. Besides, the outcome with Colletotrichum and in the data set on Mycolicibacterium vaccae [19] was inactive. Further, the figures for the Stability (in the data set with Liver microsomes; in [21]) were 8.1% and 2.1%, respectively. Further, the MIC in data set [1] is 1.1 µM (≈ 0.377 µg/mL); in [25] it was 31.9 µM (≈ 10.9 µg/mL); in [2], 0.48 µM (≈ 0.164 µg/mL). The outcome (in the data set on Mycolicibacterium vaccae [6]; in data set [13]) was Active. Further, the Activity is 12% in the data set with Mus musculus [23], “Non-toxic” in the data set with Mus musculus [24] and “Non-toxic” in the data set on Mus musculus [26]. This compound also showed an IC50 with Vero of more than 128 µM.

Consider `O=C(OCc1ccccc1)[C@@H]1COC(c2ccccc2OCc2ccccc2)=N1`, for which the Stability is reported as 8.4% in the data set on Liver microsomes and 1.4% in [21]. Also, the MIC stood at 12.6 µM (≈ 4.88 µg/mL) in data set [1], 67.3 µM (≈ 26.1 µg/mL) in [25] and 7.7 µM (≈ 2.98 µg/mL) in data set [27]. Also, the outcome in data set [10] was inactive. The Activity entry in the data set on Mus musculus [23], in the data set on Mus musculus [24] and with Mus musculus [26] was “Non-toxic” each time. The IC50 in the data set with Vero is more than 128 µM.
